15 molecules from patent publication EP0367747A2, “Dideoxy-L-arabinitol derivatives as antiviral compounds” (G.D. Searle & Co., priority 1988, dated 1990) can be followed below.

Where two headings read alike, the source gives them in different places. Marks after values point to notes of the source that are not given here.

Series [1] deals with Sheep choroid plexus(SCP) cells. The series can be described thus: Toxicity of compounds in control wells without virus, graded morphologically 0 to 4. The series is classed as cell-based. Also noted: key: 0 = no toxicity; 4 = total cell lyses. The settings on record: 0 to 4 scale. How it is done: (§1) SCP cells were cultured in 6-well plates to confluence. Wells were washed two times with serum free Minimal Essential Medium (MEM) to remove FBS. 0.2ml of virus was added per well in MEM supplemented with 4mM glutamine and gentamycin. After 1 hour adsorption, the virus was aspirated from each well. The appropriate concentration of each compound in 5 ml of Medium 199 (M-199) supplemented with 2% lamb serum, 4mM glutamine, 0.5% agarose and gentamycin was added to each well. Cultures were incubated at 37°C in a humidified 5% CO₂ incubator for 3-4 weeks. To terminate the test: cultures were fixed in 10% formalin, the agar removed, the monolayers stained with 1% crystal violet and plaques counted. Each compound concentration was run in triplicate. […] 0 is no toxicity observed while 4 is total lysing of the cell monolayer.
Control wells without virus were completed to determine the toxicity of compounds.

The subject of series [2] is visna virus. Description: Inhibition of visna virus in vitro (plaque reduction assay / 96 well plate assay) in SCP cells. Also noted: key to Antiviral Activity: A = active compound; I = inactive. The settings on record: for EC50 / inhibition at 1 µM / inhibition at 10 µM / inhibition at 100 µM / inhibition at 1000 µM: Visna-maedi virus; for EC50: inhibition of visna virus, read-out: EC₅₀; for inhibition at 1 µM: Concentration 0.001 mM; for inhibition at 10 µM: Concentration 0.01 mM; for inhibition at 100 µM: Concentration 0.1 mM; for inhibition at 1000 µM: Concentration 1.0 mM; for Antiviral Activity: Table 4. It is filed as cell-based. As for the experimental part:
Various compounds as prepared above were tested for inhibition of visna virus in vitro in a plaque reduction assay as follows:
Sheep choroid plexus(SCP) cells were obtained from American Type Culture Collection (ATCC) catalogue number CRL 1700 and were routinely passaged in vitro in Dulbecco's Modified Eagles (DME) medium supplemented with 20% fetal bovine serum (FBS). SCP cells were passaged once per week at a 1:2 or 1:3 split ratio. Visna was titrated by plaque assay in six-well plates. Virus pools were stored at -70°C.
as §1
The 96 well plate assay was performed similarly to the plaque assay above with modifications. SCP cells were seeded at 1 x 10⁴ cells per well in 0.1 ml DME medium. When confluent, the wells were washed with serum free MEM and 25ul of virus added in M-199 supplemented with 2% lamb serum. After 1 hour, 75uL of medium containing test compound was added to each well containing virus. After 2-3 weeks incubation the cytopathic effect of the virus was determined by staining with a vital stain. Cell viability was measured by determining stain density using a 96 well plate reader.
In general terms: Plaque reduction counts the foci of infection that form in a cell layer.

Series [3] relates to almond beta-glucosidase. The series can be described thus: Beta-glucosidase inhibition assay, pH 7.4 (p-nitrophenol release). The series is classed as biochemical. The settings on record: for β-Glucosidase pH 7.4 % Inhibition: Table 5. How it is done:
(§2) Yeast alpha-glucosidase and almond beta-glucosidase activities were measured by a modification of the method of Evans, et al., Phytochemistry 22, 768-770 (1983). The modifications included 1) assay of activities at pH 7.4 in HEPES (N-2-hydroxyethylpiperazine-N′-2-ethanesulfonic acid) buffer, 2) measurement in 96 well microtiter plates and 3) inclusion of 10% DMSO in control and test samples. The release of p-nitrophenol from the substrate p-nitrophenylglycoside was measured spectrophotometrically in the presence and absence of test compound. Each assay included a known inhibitor of the enzyme as a standard. IC₅₀ values were determined for compounds which inhibited the enzymes more than 50% at a 1 millimolar concentration. To 100 µl 50 mM HEPES buffer, pH 7.4, in a microtiter plate, add 20 µl test compound in DMSO (DMSO alone in control), 40 µl (0.136 units) beta-glucosidase (Sigma) in HEPES buffer and pre-incubate at room temperature for 15 minutes. […] Absorption change was measured at 15 to 25 minutes (reaction is linear for at least 30 minutes). Each sample was tested in triplicate. IC₅₀ values were determined from the linear portion of the log concentration vs % inhibition curve obtained from a minimum of 3 points. Castanospermine was used as standard inhibitor.

For series [4], the target named is T1, Yeast alpha-glucosidase (Saccharomyces cerevisiae, UniProt P53341).
T1 construct: purchased Sigma
The series can be described thus: Alpha-glucosidase inhibition assay, pH 7.4 (p-nitrophenol release). The series is classed as biochemical. As for the experimental part: as §2, with “µl (0.013” for “µl (0.136”, “units) yeast alpha-glucosidase” for “units) beta-glucosidase”, “(reaction was” for “(reaction is”, “points. Deoxynojirimycin” for “points. Castanospermine”

Series [5] concerns almond beta-glucosidase. The series can be described thus: Beta-glucosidase inhibition assay, pH 4.8 (p-nitrophenol release). The series is classed as biochemical. The settings on record: for β-Glucosidase pH 4.8 % Inhibition: Table 5. As for the experimental part:
Yeast alpha-glucosidase and almond beta-glucosidase activities were measured by a modification of the method of Evans, et al., Phytochemistry 22, 768-770 (1983). The modifications included 1) assay of activities at pH 7.4 in HEPES (N-2-hydroxyethylpiperazine-N′-2-ethanesulfonic acid) buffer, 2) measurement in 96 well microtiter plates and 3) inclusion of 10% DMSO in control and test samples. The release of p-nitrophenol from the substrate p-nitrophenylglycoside was measured spectrophotometrically in the presence and absence of test compound. Each assay included a known inhibitor of the enzyme as a standard. IC₅₀ values were determined for compounds which inhibited the enzymes more than 50% at a 1 millimolar concentration. To 100 µl 50 mM sodium citrate buffer, pH 4.8, in a microtiter plate, add 15 µl test compound in DMSO (DMSO alone in control), 20 µl (.017 units) beta-glucosidase (Sigma) in citrate buffer and pre-incubate at room temperature for 15 minutes. Add 25 µl 2.50 mM p-nitrophenyl-beta-D-glucopyranside in citrate buffer, as substrate. Incubate at room temperature 20 minutes (reaction is linear for at least 30 minutes). Add 50 µl 0.4 M NaOH. Read absortion change at 405 nm in a Biotek EIA Autoreader. Each sample was tested in triplicate. IC₅₀ values were determined from the linear portion of the log concentration vs % inhibition curve obtained from a minimum of 3 points. Castanospermine was used as standard inhibitor.

The mark [6] stands for this setting: Table 5, values marked *, read-out: α-Glucosidase IC₅₀.
The mark [7] stands for this setting: Table 3, pH 7.4, read-out: α-glucosidase IC₅₀.

T1 sequence (P53341 whole entry): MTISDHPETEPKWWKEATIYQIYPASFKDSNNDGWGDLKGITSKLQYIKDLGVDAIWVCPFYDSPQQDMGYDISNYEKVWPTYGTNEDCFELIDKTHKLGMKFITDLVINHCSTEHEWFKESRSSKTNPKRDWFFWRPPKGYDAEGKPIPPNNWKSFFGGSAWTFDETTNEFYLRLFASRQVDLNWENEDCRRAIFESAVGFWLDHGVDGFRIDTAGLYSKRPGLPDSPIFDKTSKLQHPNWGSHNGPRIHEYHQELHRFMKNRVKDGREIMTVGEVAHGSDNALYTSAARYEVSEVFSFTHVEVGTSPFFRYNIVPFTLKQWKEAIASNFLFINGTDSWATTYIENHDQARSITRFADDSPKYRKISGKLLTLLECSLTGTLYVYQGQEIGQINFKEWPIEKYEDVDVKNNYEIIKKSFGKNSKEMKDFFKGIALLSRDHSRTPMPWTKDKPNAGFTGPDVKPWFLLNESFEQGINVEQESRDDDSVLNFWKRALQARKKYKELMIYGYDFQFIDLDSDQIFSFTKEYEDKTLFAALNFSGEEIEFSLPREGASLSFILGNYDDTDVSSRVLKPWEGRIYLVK

Consider `CCc1ccc(CN2C[C@H](OC(C)=O)[C@@H](OC(C)=O)[C@@H]2COC(C)=O)cc1` [Example 10, 1,4-([4-Ethylphenyl]methylimino)-1,4-dideoxy-L-arabinitol, triacetate], for which the Toxicity is 1 in series [1] (Table 4, 0.01 mM Concn.); 1 in series [1] (Table 4, 0.1 mM Concn.); 4 in series [1] (Table 4, 1.0 mM Concn.).
For `CCc1ccc(CN2C[C@H](O)[C@@H](O)[C@@H]2CO)cc1` [Example 9, 1,4-([4-Ethylphenyl]methylimino)-1,4-dideoxy-L-arabinitol], the EC50 in series [2] was determined as 100 µM.
Consider `O=C(OCc1ccccc1)N1C[C@H](O)[C@@H](O)[C@@H]1CO` [Example 17, 1,4-(Benzyloxycarbonylimino)-1,4-dideoxy-L-arabinitol], for which, in series [3] (at 1.0 mM), the “β-Glucosidase pH 7.4 % Inhibition” value is listed as 4%. The IC50 in series [4] (setting [6]) came out at 482 µM. Besides, the “β-Glucosidase pH 4.8 % Inhibition” value in series [5] (at 1.0 mM) is given as 4%.
On to `CCCC(=O)OC[C@H]1[C@H](OC(=O)CCC)[C@@H](OC(=O)CCC)CN1C(=O)OCc1ccccc1` [Example 22, 1,4-(Benzyloxycarbonylimino)-1,4-dideoxy-L-arabinitol, tributyrate], for which the “β-Glucosidase pH 7.4 % Inhibition” value in series [3] (at 10 µM (**)) was 2%**. In addition, the inhibition at 10 µM in series [4] (Table 5, at 10 µM (**), read-out: α-Glucosidase % Inhibition) was determined as 30%. The “β-Glucosidase pH 4.8 % Inhibition” value in series [5] (at 10 µM (**)) is reported as 11%**. Also, the Toxicity in series [1] (Table 4, 0.1 mM Concn.) turned out to be 1; in series [1] (Table 4, 1.0 mM Concn.) it was 2.
As to `OC[C@H]1[C@H](O)[C@@H](O)CN1CCCc1ccccc1` [Example 16, 1,4-([3-Propylphenyl]imino)-1,4-dideoxy-L-arabinitol], the IC50 is > 1000 µM in series [3] (Table 3, at pH 7.4, read-out: β-glucosidase IC₅₀); 13 µM in series [4] (setting [7]); > 1000 µM in series [5] (Table 3, at pH 4.8, read-out: β-glucosidase IC₅₀). Also, in series [3] (at 1.0 mM), the “β-Glucosidase pH 7.4 % Inhibition” value is 31%. For the same molecule, the “β-Glucosidase pH 4.8 % Inhibition” value in series [5] (at 1.0 mM) came out at 34%. Also, the Toxicity is recorded as 0 in series [1] (Table 4, 0.01 mM Concn.); 0 in series [1] (Table 4, 0.1 mM Concn.); 3 in series [1] (Table 4, 1.0 mM Concn.).
`CCCC(=O)OC[C@@H]1NC[C@H](OC(=O)CCC)[C@H]1OC(=O)CCC` [Example 23, 1,4-Imino-1,4-dideoxy-L-arabinitol, tributyrate]: in series [2], the EC50 came out at 1 µM.
Consider `CC(C)C(=O)OC[C@H]1[C@H](OC(=O)C(C)C)[C@@H](OC(=O)C(C)C)CN1C(=O)OCc1ccccc1` [Example 24, 1,4-(Benzyloxycarbonylimino)-1,4-dideoxy-L-arabinitol, triisobutyrate], for which the “β-Glucosidase pH 7.4 % Inhibition” value in series [3] (at 1.0 mM) is listed as 1%. The IC50 in series [4] (setting [6]) turned out to be 33 µM. The “β-Glucosidase pH 4.8 % Inhibition” value in series [5] (at 1.0 mM) worked out at 7%.
`CCCCN1C[C@H](O)[C@@H](O)[C@H](O)[C@H]1CO` [N-Bu-DNJ, N-butyl derivative of 1,5-dideoxy-1,5-imino-D-glucitol, reference compound]: the Toxicity came to 0 in series [1] (Concentration 0.001 mM), 0 in series [1] (Concentration 0.01 mM), 1 in series [1] (Concentration 0.1 mM) and 2 in series [1] (Concentration 1.0 mM). Besides, in series [2], the inhibition at 1 µM is -74%. Further, the inhibition at 10 µM in series [2] is 13%. Moreover, in series [2], the inhibition at 100 µM came to 100%. Moreover, the inhibition at 1000 µM in series [2] was determined as 100%.
As to `CC(=O)OC[C@H]1[C@H](OC(C)=O)[C@@H](OC(C)=O)CN1C(=O)c1ccccc1` [Example 27, 1,4-(Benzoylimino)-1,4-dideoxy-L-arabinitol, triacetate], the inhibition at 1000 µM in series [4] (Table 3, at 1 mM, read-out: α-glucosidase Inhibitory Activity) was 23%.
In the case of `CCCCN1CC(O)C(O)C1CO` [Example 4, 1,4-(Butylimino)-1,4-dideoxy-L-arabinitol], the “β-Glucosidase pH 7.4 % Inhibition” value in series [3] (at 1.0 mM) is on record as 26%. The IC50 in series [4] (setting [6]) stood at 227 µM. Further, the “β-Glucosidase pH 4.8 % Inhibition” value in series [5] (at 1.0 mM) is 20%. The Toxicity in series [1] (Table 4, 0.01 mM Concn.) is 0; in series [1] (Table 4, 0.1 mM Concn.) it was 0; in series [1] (Table 4, 1.0 mM Concn.) it was 0.
On to `CCC(=O)N1C[C@H](OC(C)=O)[C@@H](OC(C)=O)[C@@H]1COC(C)=O` [Example 31, 1,4-(Propionylimino)-1,4-dideoxy-L-arabinitol, triacetate], for which the Toxicity worked out at 1 in series [1] (Table 4, 0.1 mM Concn.) and 3 in series [1] (Table 4, 1.0 mM Concn.).
In the case of `CC(=O)OCCCCCN1C[C@H](OC(C)=O)[C@@H](OC(C)=O)[C@@H]1COC(C)=O` [Example 15, 1,4-([5-Acetyloxypentyl]imino)-1,4-dideoxy-L-arabinitol, triacetate], the EC50 in series [2] worked out at 100 µM.
As for `CCCCCCN1CC(O)C(O)C1CO` [Example 6, 1,4-(Hexylimino)-1,4-dideoxy-L-arabinitol], the IC50 in series [4] (setting [7]) came out at 35 µM. Further, the EC50 in series [2] came to 125 µM.
Take `CCCCCCN1C[C@H](OC(C)=O)[C@@H](OC(C)=O)[C@@H]1COC(C)=O` [Example 7, 1,4-(Hexylimino)-1,4-dideoxy-L-arabinitol, triacetate]: the Toxicity in series [1] (Table 4, 0.01 mM Concn.) was determined as 0; in series [1] (Table 4, 0.1 mM Concn.), 2; in series [1] (Table 4, 1.0 mM Concn.) it was 4. Also, the “Antiviral Activity” value in series [2] (0.01 mM Concn.) and in series [2] (0.1 mM Concn.) was “A” throughout.
`CCCCN1C[C@H](OC(C)=O)[C@@H](OC(C)=O)[C@@H]1COC(C)=O` [Example 5, 1,4-(Butylimino)-1,4-dideoxy-L-arabinitol, triacetate] displayed a Toxicity in series [1] (Concentration 0.001 mM) of 0. In series [1] (Concentration 0.01 mM), this molecule gave a Toxicity of 0. This molecule registered a Toxicity in series [1] (Concentration 0.1 mM) of 0. Further, the Toxicity in series [1] (Concentration 1.0 mM) stood at 0. For the same molecule, in series [2], the inhibition at 1 µM turned out to be 9%, the inhibition at 10 µM is 10%, the inhibition at 100 µM was 10% and the inhibition at 1000 µM was 83%.
